Assay results from patent publication US20250188078A1, “SMALL MOLECULE INHIBITORS OF THE CRL4 UBIQUITIN LIGASE” (Cornell University, priority 2022, published 2025).
Where “and” joins values, the source holds several entries; their conditions need not be identical. Equal entries are not always repeated.

Experiments:
[1] = Dynamic light scattering (DLS) solubility assay; format: physicochemical; settings: normalized intensity ratio of 25 μM compound vs DMSO, in PBS
Procedure, shortened: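 Compounds diluted from DMSO into PBS at final concentrations of 200 μM to 0.78 μM, in triplicate, and aggregation measured by light scattering intensity. A ratio above 2 scores insoluble (−), below 2 soluble (+), and around 2 (+/−).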

[2] = biological target: DDB1-BPB (Homo sapiens (Human), UniProt Q16531); assay: Microscale Thermophoresis (MST) binding to DDB1-BPB; settings: labeled DDB1-BPB, 25° C.
Method: Kd represents dissociation constant, which measures the affinity of small molecule binding to the scaffold DDB1-BPB by Microscale Thermophoresis (MST) (see Table 1, column 9). MST experiments were performed on a Monolith NT 115 system (Nano Temper Technologies, Munich, Germany) using 100% LED and 60% IR-laser power (https://physiology.case.edu/media/eq manuals/eq_manual_nano-temper_mst_starting_guide.pdf, hereby incorporated by reference in its entirety for all purposes). The labeling of DDB1-BPB ([…]) was performed in labeling buffer with NHS-Red reactive dye (30 μM) (Nanotemper), which reacts efficiently with the primary amines of the proteins to form a stable dye protein conjugates. The labeling reaction was carried out at RT. A 16-point serial dilution (1:1) was prepared for compound at the final concentration ranged from 200 µM to 3 nM in PBS containing 0.05% tween. The samples were filled into Premium capillaries and measurements were conducted at 25° C. An equation implemented by the software MO-S002 MO Affinity Analysis, provided by the manufacturer, was used for fitting normalized fluorescence values at different concentrations of ligands.

[3] = Pharmacokinetic study: compound concentration in MDA-MB-468 xenograft tumor tissue; format: in vivo, mouse; settings: for Tissue concentration: individual tumors
Method: Female athymic Nu/J nude mice, 6 weeks old were purchased from the Jackson Laboratory. Mice were housed in laminar air-flow cabinet under specific pathogen-free conditions. 5×10^6 MDA-MB-468 cells in 100 μl diluted BD Matrigel™ Basement Membrane Matrix (BD Bioscience, Matrix:PBS is 1:1) were injected subcutaneously in each flank of mouse. We detected tumors once every four days by fine calipers measurement. When tumor size reached 100 mm^3, mice were randomly grouped and treated with DMSO or 50 mg/kg PA99 compound. The stock solution of compound was 10 mg/ml, which formulated with 10% DMSO, 10% Tween-80 and 80% H2O. PA99 was injected into mouse by intraperitoneal injection ([…]) three times per week. Mouse weights and tumor volumes were measured twice/week. For the pharmacokinetic study, samples were collected after compound injection (30 mins, 1 h, 3 h, 6 h). Four tumor samples were collected at each time point for mass spectrometry analysis to determine the compound concentrations in tumor tissues.

[4] = tested on: MCF7 breast cancer cells; assay: Cell killing in MCF7 cells (CellTiter Glo); format: cell-based; settings: Homo sapiens, MCF7, 192 h; Table 3, 0 to 20 μM compound, 8 days treatment
Method: CUL4A^high MDA-MB-468, CUL4^low (T47D), and MCF7 breast cancer cells were seeded in 96 well plates separately. Cells were treated with DMSO, or from 0 to 20 μM compound respectively. Replace with fresh medium and compounds every 48 hours. After 8 days treatment, cell viability was examined by CellTiter Glo kit (Promega #7570). First, transfer the appropriate volume (10 ml for Cat. #G7570) of CellTiter-Glo® Buffer into the amber bottle containing CellTiter-Glo® Substrate to reconstitute the lyophilized enzyme/substrate mixture. This forms the CellTiter-Glo® Reagent. Second, add CellTiter-Glo® Reagent in an equal volume (100 μl per well for 96-well plates) to all wells. Mix contents for 2 minutes on an orbital shaker to induce cell lysis. Incubate at room temperature for 15 minutes to stabilize luminescent signal. Then record luminescence. EC50 concentration was calculated by Prism 8 XY analysis nonlinear regression (curve fit-Log(inhibitor) vs response).

[5] = tested on: CUL4A^high xenograft and PDX tumors; assay: CUL4A^high xenograft and PDX tumor growth; format: in vivo, mouse; settings: 50 mg/kg intraperitoneal; breast cancer xenograft and colorectal cancer PDX models, FIGS. 8A-8C
Method: Measurements were performed according to the following procedure. Mouse body weights were monitored using a scale. Tumors were assessed and volumes measured with fine calipers twice a week. The tumor volumes were calculated with the formula: Volume=(Length×Width^2)/2. Compound PA99 was administered via intraperitoneal doses in an amount of 50 mg/kg every X days, where X is the number of days shown in FIGS. 8A-8C.

[6] = tested on: CUL4A^high MDA-MB-468 and CUL4^low (T47D) cells; assay: Selective killing of CUL4A^high tumors (MDA-MB-468 vs T47D, Cell Titer Glo); format: cell-based; settings: FIG. 10, 8 days treatment
Method: CUL4A^high MDA-MB-468 breast cancer cells and CUL4^low (T47D) cells were seeded in 96 well plates. After 24 hours, cells were treated with DMSO or compound PA99. After 8 days treatment, cell viability was examined by using CellTiter Glo kit (Promega #7570) following the manufacturer's guidelines. EC50 concentration was calculated by Prism 8 XY analysis nonlinear regression (curve fit-Log(inhibitor) vs response). Lower EC50 indicates high cell killing potential in CUL4^high MDA-MB-468 cells.

DDB1-BPB, sequence (Q16531 403-706): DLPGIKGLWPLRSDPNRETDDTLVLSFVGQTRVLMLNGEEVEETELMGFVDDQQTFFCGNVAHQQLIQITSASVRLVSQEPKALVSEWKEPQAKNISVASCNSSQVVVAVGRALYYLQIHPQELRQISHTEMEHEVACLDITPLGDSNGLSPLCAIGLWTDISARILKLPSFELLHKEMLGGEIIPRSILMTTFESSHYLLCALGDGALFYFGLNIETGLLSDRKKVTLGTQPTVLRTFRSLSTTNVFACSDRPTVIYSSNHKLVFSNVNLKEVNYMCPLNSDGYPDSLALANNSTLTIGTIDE

Compound | Solubility (DLS Assay) [1] | Kd (MST) [2] | Kd [2] [nM] | Tissue concentration ([3]; 30 min after 50 mg/kg intraperitoneal injection) | Tissue concentration ([3]; 1 hr after 50 mg/kg intraperitoneal injection) | Tissue concentration ([3]; 3 hr after 50 mg/kg intraperitoneal injection) | Tissue concentration ([3]; 6 hr after 50 mg/kg intraperitoneal injection) | concentration at 30 min ([3]; female, athymic Nu/J nude, mouse, MDA-MB-468 xenograft tumor, intraperitoneal, 50 mg/kg, 30 min, average of four tumors) | concentration at 1 h ([3]; female, athymic Nu/J nude, mouse, MDA-MB-468 xenograft tumor, intraperitoneal, 50 mg/kg, 1 hr, average of four tumors) | concentration at 3 h ([3]; female, athymic Nu/J nude, mouse, MDA-MB-468 xenograft tumor, intraperitoneal, 50 mg/kg, 3 hr, average of four tumors) | concentration at 6 h ([3]; female, athymic Nu/J nude, mouse, MDA-MB-468 xenograft tumor, intraperitoneal, 50 mg/kg, 6 hr, average of four tumors) | EC50 [4] [µM] | Tumor growth [5] | Killing of CUL4A^high tumors [6]
CN(c1ccc(-c2nc(C(=O)O)cc3c2[nH]c2ccc(F)cc23)cc1)S(=O)(=O)c1ccccc1 [PA93] | -(insoluble) | Insoluble |  |  |  |  |  |  |  |  |  |  |  | 
CN(c1ccc(-c2nc(C(=O)O)cc3c2[nH]c2cccc(F)c23)cc1)S(=O)(=O)c1ccccc1 [PA99, 5-fluoro-1-(4-(N-methylphenylsulfonamido)phenyl)-9H-pyrido[3,4-b]indole-3-carboxylic acid] |  |  | 2970 | 3910 ng/mL and 8.2 μM and 666 ng/mL and 1.4 μM (2×) and 670 ng/mL and 1010 ng/mL and 2.1 μM | 5780 ng/mL and 12.2 μM and 1790 ng/mL and 3.8 μM and 1230 ng/mL and 2.6 μM and 870 ng/mL and 1.8 μM | 1400 ng/mL and 2.9 μM and 1340 ng/mL and 2.8 μM and 392 ng/mL and 0.8 μM and 290 ng/mL and 0.6 μM | 419 ng/mL and 0.88 μM and 342 ng/mL and 0.72 μM and 1440 ng/mL and 3.0 μM and 913 ng/mL and 1.9 μM | 1560 ng/mL and 3.3 µM | 2420 ng/mL and 5.1 µM | 856 ng/mL and 1.8 µM | 779 ng/mL and 1.6 µM | 19.5 | suppression | selective killing
